Results published in PMC3259734 (ACS medicinal chemistry letters, 2011).
≈ marks a conversion by molar mass, not a printed value. Where “and” joins values, the source holds several entries; their conditions need not be identical. Equal values may be shown once.

How the values were obtained:
MenB [1] = molecular target: T1, MenB (Mycobacterium tuberculosis, UniProt P9WNP5); test: Steady state kinetics of MenB inhibition; assay type: biochemical; details: steady state kinetic methods
MenB [2] = molecular target: T1, MenB; test: biochemical; details: for ability to inhibit MenB: analogues still able to undergo elimination
M. tuberculosis H37Rv [3] = test: Antibacterial activity; assay type: cell-based, Mycobacterium tuberculosis; details: in words
Cytotoxicity assays = assay type: cell-based
M. tuberculosis H37Rv [4] = test: DHNA rescue of growth of treated M. tuberculosis; assay type: cell-based, Mycobacterium tuberculosis; details: DHNA 100 μg/ml added to the media; compound at 2xMIC
MenE = test: Direct MenE inhibition assay; assay type: biochemical; details: MenE 100 nM; data not shown
[5] = test system: nonreplicating M. tuberculosis (NRP-MTB); details: against NRP-MTB; cited from earlier work

T1 sequence (P9WNP5 whole entry): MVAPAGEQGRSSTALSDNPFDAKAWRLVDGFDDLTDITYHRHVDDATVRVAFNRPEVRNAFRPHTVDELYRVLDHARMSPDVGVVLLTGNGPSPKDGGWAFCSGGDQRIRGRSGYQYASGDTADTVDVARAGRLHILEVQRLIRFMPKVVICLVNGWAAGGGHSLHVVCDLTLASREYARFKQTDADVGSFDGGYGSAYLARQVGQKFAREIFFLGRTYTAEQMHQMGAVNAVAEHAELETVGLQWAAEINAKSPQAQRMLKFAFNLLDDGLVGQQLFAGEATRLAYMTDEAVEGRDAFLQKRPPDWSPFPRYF

CC(C)(COP(=O)(O)OP(=O)(O)OC[C@H]1O[C@@H](n2cnc3c(N)ncnc32)[C@H](O)[C@@H]1OP(=O)(O)O)[C@@H](O)C(=O)NCCC(=O)NCCSC(CC(=O)c1ccc(Cl)cc1)C(=O)O (stereo partly drawn) [Compound 7]
mode of MenB inhibition (MenB [1]): noncompetitive (mixed)

CC(C)(COP(=O)(O)OP(=O)(O)OC[C@H]1O[C@@H](n2cnc3c(N)ncnc32)[C@H](O)[C@@H]1OP(=O)(O)O)[C@@H](O)C(=O)NCCC(=O)NCCSCCC(=O)c1ccc(Cl)cc1Cl [Compound 18]
concentration up to which MenB was not (significantly) inhibited (MenB [2]): > 400 µM

CC(C)(COP(=O)(O)OP(=O)(O)OC[C@H]1O[C@@H](n2cnc3c(N)ncnc32)[C@H](O)[C@@H]1OP(=O)(O)O)[C@@H](O)C(=O)NCCC(=O)NCCSC(CC(=O)c1ccccc1Cl)C(=O)O (stereo partly drawn) [Compound 10]
mode of MenB inhibition (MenB [1]): noncompetitive (mixed)

[2H]C([2H])(C(=O)c1ccccc1Cl)C(N[C@@H](C)c1ccccc1)C(=O)O (stereo partly drawn) [Compound 8S]
ability to inhibit MenB (MenB [2]): retained the ability to inhibit MenB

O=C(O)/C=C/C(=O)c1ccc(Cl)cc1 [Compound 3a]
change of IC50 for MenB inhibition with CoA concentration (MenB [2]; data not shown): decreased as the concentration of CoA increased
antibacterial activity (M. tuberculosis H37Rv [3]): limited antibacterial activity

CC(C(=O)c1ccc(Cl)cc1)C(N[C@@H](C)c1ccccc1)C(=O)O (stereo partly drawn) [Compound 7S]
ability to inhibit MenB (MenB [2]): retained the ability to inhibit MenB

COC(=O)/C=C/C(=O)c1ccc(Cl)cc1 [Compound 3b, 4-Oxo-4-chlorophenylbutenoyl methyl ester]
selectivity ratio (Cytotoxicity assays): > 20
rescue of growth by DHNA (M. tuberculosis H37Rv [4]): rescue the growth

COC(=O)/C=C/C(=O)c1ccc(F)cc1 [Compound 2b]
selectivity ratio (Cytotoxicity assays): > 20
rescue of growth by DHNA (M. tuberculosis H37Rv [4]): rescue the growth

CC(NC(CC(=O)c1ccc(F)cc1)C(=O)O)c1ccccc1 (stereo not drawn) [Compound 1548L21]
concentration up to which MenE was not inhibited (MenE): > 300 µM

CO[C@H]1/C=C/O[C@@]2(C)Oc3c(C)c(O)c4c(O)c(c(/C=N/N5CCN(C)CC5)c(O)c4c3C2=O)NC(=O)/C(C)=C\C=C\[C@H](C)[C@H](O)[C@@H](C)[C@@H](O)[C@@H](C)[C@H](OC(C)=O)[C@@H]1C [rifampicin]
MIC [5]: 0.4 µg/mL (≈ 0.486 µM)

CC(C)(COP(=O)(O)OP(=O)(O)OC[C@H]1O[C@@H](n2cnc3c(N)ncnc32)[C@H](O)[C@@H]1OP(=O)(O)O)[C@@H](O)C(=O)NCCC(=O)NCCSC(CC(=O)c1ccc(Cl)cc1Cl)C(=O)O (stereo partly drawn) [Compound 16]
IC50 (MenB [2]; IC50, 2-CoA-4-oxo-4-phenylbutanoic acids and analogues, Table 2): ~100 nM and 100 nM
mode of MenB inhibition (MenB [1]): noncompetitive (mixed)
